Test results reported in BigSolDB 2.1.

CCCCN(CCCC)c1ccc(C(=O)c2ccccc2C(=O)O)c(O)c1
solubility (mole fraction)
Settings | 283.15 K | 288.15 K | 293.15 K | 298.15 K | 303.15 K | 308.15 K | 313.15 K | 318.15 K | 323.15 K
in isopropyl acetate | – | 0.00485 | 0.00544 | 0.00624 | 0.00715 | 0.00815 | 0.00901 | 0.00991 | 0.011
in methanol | 0.00164 | 0.00194 | 0.00238 | 0.00292 | 0.0037 | 0.0047 | 0.00617 | 0.00811 | 0.0111
in n-butyl acetate | 0.00418 | 0.00493 | 0.00556 | 0.00639 | 0.00727 | 0.00824 | 0.00952 | 0.0109 | 0.0123
in n-heptane | 1.5e-05 | 1.8e-05 | 2.3e-05 | 2.7e-05 | 3.3e-05 | 3.8e-05 | 4.3e-05 | 4.8e-05 | 5.2e-05
in n-propanol | 0.0165 | 0.0212 | 0.0258 | 0.0321 | 0.0399 | 0.0496 | 0.062 | 0.0773 | 0.0958
in n-propyl acetate | 0.0037 | 0.00454 | 0.00547 | 0.00631 | 0.00738 | 0.00846 | 0.00983 | 0.0115 | 0.0129
